{
  "source": "patent US11925696B2",
  "about": "“Carbonic anhydrase IX targeting agents and methods” (priority 2016, dated 2024)",
  "key": {"HT-29 cells [1]": {"test_system": "HT-29 cells", "experiment": "Fluorescent microscopy: binding of rhodamine-labeled CA IX conjugates to HT-29 cells", "assay_type": "cell-based, human", "details": "1 hour at 37° C.; alone or plus 100-fold excess CA IX inhibitor; confocal microscopy", "experimental": "Fluorescent conjugates were incubated with HT-29 cells in the presence or absence of 100-fold excess unlabeled ligand. After washing, white light and fluorescent microscopy were used to visualize binding.\na. HT-29 cells (10^5) were seeded into chambered coverglass plates and allowed to grow to confluence over 48-72 hr. Spent medium was replaced with 0.5 mL of fresh medium containing 0.5% bovine serum albumin and various concentrations of the dye conjugate (L1-Rhodamine, L2-Rhodamine or L3-Rhodamine) alone or the dye conjugate plus 100-fold excess CA IX inhibitor L1, L2 or L3, where appropriate. After incubation for 1 hour at 37° C., cells were rinsed twice with 1 mL of incubation solution to remove unbound fluorescence and 0.5 ml of fresh incubation medium was added to the wells. Images were acquired using a confocal microscopy (FV 1000, Olympus)."}, "[2]": {"test_system": "HCT-116, HT-29, RCC4 and SK-RC-38 human cancer cell lines", "experiment": "Fluorescent microscopy: binding of L2-Rhodamine to CA IX expressing cell lines", "assay_type": "cell-based", "experimental": "After washing, white light and fluorescent microscopy were used to visualize binding.\nb. HCT-116, HT-29, RCC4 and SK-RC-38 human cancer cell lines (10^5) were seeded into chambered coverglass plates and allowed to grow to confluence over 48-72 hr. […] After incubation for 1 hour at 37° C., cells were rinsed with incubation solution (2×1.0 mL) to remove unbound conjugate then washed with PBS (1×1.0 mL). Images were acquired using confocal microscopy (FV 1000, Olympus). […] Additionally, the punctate appearance in several of the cell lines is indicative of a rapid internalization of the bound conjugate."}, "HT-29 cells [3]": {"test_system": "HT-29 cells", "experiment": "99mTc conjugates binding to HT-29 cells (apparent KD, gamma counting)", "design": "species or system human", "details": "for Kd: 99mTc-bound conjugate, 1 h at 37° C., read-out: Binding Affinity (apparent KD)", "experimental": "HT-29 cells (150,000 cells/well in 500 μL) were seeded into 24-well Falcon plates and allowed to form monolayers over 48 h. […] After incubating for 1 h at 37° C., cells were rinsed twice with 1 mL of medium and 1 mL of tris buffer. After dissolving in 0.5 mL of 0.25 M NaOH (aq), cells were transferred into individual γ-counter tubes and radioactivity was counted using a γ-counter (Packard, Packard Instrument Company). Apparent KD was calculated by plotting bound radioactivity versus the concentration of radiotracer using GraphPad Prism 4."}, "HT-29 xenograft tumors": {"test_system": "HT-29 xenograft tumors", "details": "for relative average radioactive intensity in the tumor: 10 nmol tail vein, kidneys shielded", "experimental": "Whole animal images were taken 4 hours post-injection. […] The percentage of the injected dose per gram of tissue was determined and plotted. Error bars represent standard deviation. (□) Competition; (▪) L2-PEG36-EC20. […] Whole animal images were taken 9 hours post-injection. […] The percentage of the injected dose per gram of tissue was determined and plotted. Error bars represent standard deviation. (□) Competition; (▪) L2-PEG36-EC20. […] Whole animal images were taken 24 hours post-injection. […] The percentage of the injected dose per gram of tissue was determined and plotted. Error bars represent standard deviation. (□) Competition; (▪) L2-PEG36-EC20. […] At various times, animals were sacrificed by CO2 asphyxiation. […] Three mice bearing HT-29 xenografts were administered 10 nmol of conjugate via tail vein injection while an additional three mice also received 100-fold excess unconjugated inhibitor. A single mouse from each of the two groups was sacrificed for whole animal imaging and tissue/organ biodistribution analysis at 4, 9 and 24 hours post injection."}, "HT29 subcutaneous tumors": {"test_system": "HT29 subcutaneous tumors", "experiment": "In vivo xenograft tumor efficacy of L2-Tubulysin B", "design": "species or system mice", "details": "for tumor growth: thrice weekly for 3 weeks", "experimental": "Once tumors reached a volume of ˜100 mm^3, mice were randomized into various treatment groups (n=3 for each IP group). L2-Tubulysin B (2 μmol/kg) was administered intraperitoneally in the presence or absence of 100-fold excess CA IX ligand L2 every other day for 9 doses. Tumor volume and weight were measured every other day. Error bars represent standard error of the mean. FIG. 10A: (●) PBS Control, (▴) L2-Tubulysin B, (□) Competition. FIG. 10B: (●) PBS Control, (▴) L2-Tubulysin B, (□) Competition.\nOnce tumors reached a volume of ˜100 mm^3, mice were randomized into various treatment groups (n=5 for each IV group). CA IX-Tubulysin B ([…]) was administered via tail vein injection in the presence or absence of 100-fold excess CA IX ligand every other day for 9 doses. Tumor volume and weight were measured every other day. Error bars represent standard error of the mean. FIG. 11A: (●) PBS Control, (▴) L2-Tubulysin B, (□) Competition. FIG. 11B: (●) PBS Control, (▴) L2-Tubulysin B, (□) Competition.\nIn vivo xenograft tumor efficacy of L2-Tubulysin B. HT29 cells (5.0×10^6) were injected into the shoulders of 5-6 week old female nu/nu mice. Tumors were measured in two perpendicular directions thrice weekly with vernier calipers and their volumes were calculated as 0.5×L×W^2, where L is the longest axis (in millimeters), and W is the axis perpendicular to L (in millimeters). Dosing of L2-Tubulysin B in the presence or absence of 100-fold excess CA IX inhibitor L2 was initiated when the subcutaneous tumors reached ˜100 mm^3 in volume. Dosing solutions were prepared in saline and filtered through a 0.22 μm filter. Solutions were administered via tail vein injection or intraperitoneally. Each mouse received 2 μmol/kg L2-Tubulysin B per injection. Injections were given thrice weekly for 3 weeks and the mice were weighed concurrently."}, "Maximum tolerated dose": {"experiment": "Maximum tolerated dose", "assay_type": "in vivo, mice", "details": "for Euthanized (mice) / Healthy (mice) / Sick (mice): thrice weekly tail vein, three mice per group", "experimental": "Maximum tolerated dose. Various concentrations of L2-Tubulysin B were administered to male nu/nu mice thrice weekly via tail vein injection. Visibly sick mice were recorded and if necessary euthanized before the end of the experiment. […] Therefore, a dose of 2 μmol/kg was used for further in vivo efficacy studies."}, "HT-29 cells [4]": {"test_system": "HT-29 cells", "assay_type": "cell-based, human", "details": "for IC50: 2 h exposure, additional 66 h in fresh medium, read-out: IC50 (3H-thymidine incorporation)", "experimental": "After washing, the cells were incubated for […] and their viability was determined via ^3H-thymidine uptake.\nHT-29 cells were seeded on amine-coated 24-well plates and allowed to form monolayers. The spent medium in each well was replaced with fresh medium (0.5 mL) containing various concentrations of Tubulysin B or L2-Tubulysin B in the presence or absence of 100-fold excess CA IX inhibitor L2. After incubating for 2 h at 37° C., cells were rinsed 3 times with fresh medium and then incubated an additional 66 h at 37° C. in fresh medium. Spent medium in each well was again replaced with fresh medium (0.5 mL) containing ^3H-thymidine (1 μCi/ml) and the cells were incubated for an additional 4 h. After washing the cells 3 times with medium, they were dissolved in 0.5 mL of 0.25 M NaOH. Thymidine incorporation was then determined by counting cell-associated radioactivity using a scintillation counter (Packard, Packard Instrument Company). The IC50 value was derived from a plot of the percent of ^3H-thymidine incorporation versus log concentration using Graph Pad Prism 4 and TableCurve 2D software."}},
  "note": "Like-named read-outs stand apart in the source and are kept apart here.",
  "data": [
    {"compound": "CN(C)c1ccc2c(-c3ccc(C(=O)NCCCCCNC(=O)CN(CCN(CC(=O)O)CC(=O)Nc4ccc(S(N)(=O)=O)cc4)CC(=O)Nc4ccc(S(N)(=O)=O)cc4)cc3C(=O)O)c3ccc(=[N+](C)C)cc-3oc2c1", "note": "[Conjugate L2-Rhodamine]", "values": [
      {"measurement": "binding to HT-29 cells and competition by excess unconjugated inhibitor", "setting": "HT-29 cells [1]", "result": "bound the cells and were competed in the presence of excess unconjugated inhibitor"},
      {"measurement": "binding in the presence of competing unconjugated CA IX inhibitor", "setting": "[2]; competing unconjugated CA IX inhibitor as printed (method: 100-fold excess L2)", "result": "essentially no binding was observed"},
      {"measurement": "binding to cell lines", "setting": "[2]; dye conjugate alone, 1 hour at 37° C., confocal microscopy", "result": "binding is observed in every cell line tested"}
    ]},
    {"compound": "CN(C)c1ccc2c(-c3ccc(C(=O)NCCOCCOCCOCCOCCC(=O)Nc4cccc(NC(=O)Nc5ccc(S(N)(=O)=O)cc5)c4)cc3C(=O)O)c3ccc(=[N+](C)C)cc-3oc2c1", "note": "[Conjugate L3-Rhodamine]", "values": [
      {"measurement": "binding to HT-29 cells and competition by excess unconjugated inhibitor", "setting": "HT-29 cells [1]", "result": "bound the cells and were competed in the presence of excess unconjugated inhibitor"}
    ]},
    {"compound": "N[C@H](CNC(=O)CCOCCOCCOCCOCCOCCOCCOCCOCCOCCOCCOCCOCCOCCOCCOCCOCCOCCOCCOCCOCCOCCOCCOCCOCCOCCOCCOCCOCCOCCOCCOCCOCCOCCOCCOCCOCCNC(=O)CN(CCN(CC(=O)O)CC(=O)Nc1ccc(S(N)(=O)=O)cc1)CC(=O)Nc1ccc(S(N)(=O)=O)cc1)C(=O)N[C@@H](CC(=O)O)C(=O)NC[C@H](CS)C(=O)O", "note": "[L2-PEG36-EC20]", "values": [
      {"measurement": "Kd", "setting": "HT-29 cells [3]", "result": 57, "unit": "nM"},
      {"measurement": "tumor intensity with concurrent 100-fold excess unconjugated inhibitor", "setting": "HT-29 xenograft tumors; 4, 9 and 24 hours post injection", "result": "did not exhibit any intensity in the tumor"},
      {"measurement": "relative average radioactive intensity in the tumor", "setting": "HT-29 xenograft tumors; 4 hours post injection", "result": "~1300"},
      {"measurement": "relative average radioactive intensity in the tumor", "setting": "HT-29 xenograft tumors; 9 hours post injection", "result": 750},
      {"measurement": "relative average radioactive intensity in the tumor", "setting": "HT-29 xenograft tumors; 24 hours post injection", "result": 350}
    ]},
    {"compound": "CCCC(=O)OCN(C(=O)[C@@H](NC(=O)[C@H]1CCCCN1C)[C@@H](C)CC)[C@H](C[C@@H](OC(C)=O)c1nc(C(=O)N[C@@H](Cc2ccc(O)cc2)C[C@H](C)C(=O)NNC(=O)OCCSSC[C@H](NC(=O)[C@H](CC(=O)O)NC(=O)[C@@H](N)CNC(=O)CCOCCOCCOCCOCCOCCOCCOCCOCCOCCOCCOCCOCCNC(=O)CN(CCN(CC(=O)O)CC(=O)Nc2ccc(S(N)(=O)=O)cc2)CC(=O)Nc2ccc(S(N)(=O)=O)cc2)C(=O)O)cs1)C(C)C", "note": "[L2-Tubulysin B]", "values": [
      {"measurement": "tumor growth with 100-fold excess CA IX inhibitor L2", "setting": "HT29 subcutaneous tumors; 2 μmol/kg", "result": "growth of the tumors was similar to the control group"},
      {"measurement": "tumor growth", "setting": "HT29 subcutaneous tumors; 2 μmol/kg intraperitoneally", "result": "essentially halted tumor growth"},
      {"measurement": "tumor growth", "setting": "HT29 subcutaneous tumors; 2 μmol/kg via tail vein injection", "result": "essentially halted tumor growth"},
      {"measurement": "gross toxicity", "setting": "HT29 subcutaneous tumors; 2 μmol/kg, both routes", "result": "no gross toxicity was observed"},
      {"measurement": "loss of weight", "setting": "HT29 subcutaneous tumors; 2 μmol/kg, both routes", "result": "no loss of weight was observed"},
      {"measurement": "adverse events", "setting": "Maximum tolerated dose; 1 μmol/kg", "result": "no adverse events were identified"},
      {"measurement": "Euthanized (mice)", "setting": "Maximum tolerated dose; 1 μmol/kg", "result": 0},
      {"measurement": "Healthy (mice)", "setting": "Maximum tolerated dose; 1 μmol/kg", "result": 3},
      {"measurement": "Sick (mice)", "setting": "Maximum tolerated dose; 1 μmol/kg", "result": 0},
      {"measurement": "Euthanized (mice)", "setting": "Maximum tolerated dose; 3 μmol/kg", "result": 0},
      {"measurement": "Healthy (mice)", "setting": "Maximum tolerated dose; 3 μmol/kg", "result": 2},
      {"measurement": "Sick (mice)", "setting": "Maximum tolerated dose; 3 μmol/kg", "result": 1},
      {"measurement": "Euthanized (mice)", "setting": "Maximum tolerated dose; 5 μmol/kg", "result": 2},
      {"measurement": "Healthy (mice)", "setting": "Maximum tolerated dose; 5 μmol/kg", "result": 0},
      {"measurement": "Sick (mice)", "setting": "Maximum tolerated dose; 5 μmol/kg", "result": 1},
      {"measurement": "signs of toxicity", "setting": "Maximum tolerated dose; highest dose", "result": "all mice showed signs of toxicity"},
      {"measurement": "IC50", "setting": "HT-29 cells [4]", "result": 4.4, "unit": "nM"},
      {"measurement": "cytotoxic effect with 100-fold excess of the unconjugated inhibitor", "setting": "HT-29 cells [4]; HT-29 cells", "result": "completely abrogated"}
    ]},
    {"compound": "N[C@H](CNC(=O)CCOCCOCCOCCOCCOCCOCCOCCOCCOCCOCCOCCOCCNC(=O)CCC(=O)Nc1cccc(NC(=O)Nc2ccc(S(N)(=O)=O)cc2)c1)C(=O)N[C@@H](CC(=O)O)C(=O)NC[C@H](CS)C(=O)O", "note": "[L3-PEG12-EC20]", "values": [
      {"measurement": "Kd", "setting": "HT-29 cells [3]", "result": 146, "unit": "nM"},
      {"measurement": "decrease of binding by addition of the PEG12-EC20", "setting": "HT-29 cells [3]; binding affinity of conjugate versus reported Ki of original ligand", "result": 162, "unit": "fold"}
    ]},
    {"compound": "CCCC(=O)OCN(C(=O)[C@@H](NC(=O)[C@H]1CCCCN1C)[C@@H](C)CC)[C@H](C[C@@H](OC(C)=O)c1nc(C(=O)N[C@@H](Cc2ccc(O)cc2)C[C@H](C)C(=O)O)cs1)C(C)C", "note": "[Tubulysin B, reference compound]", "values": [
      {"measurement": "IC50", "setting": "HT-29 cells [4]", "result": 0.08, "unit": "nM"}
    ]}
  ]
}
